Here are results for 5 compounds from patent publication US12723037B2, “Triazole derivative, method for preparing same, and use thereof” (SHENZHEN JIKANG PHARMACEUTICAL TECHNOLOGY CO., LTD., priority 2021, dated 2026).

Read-outs that look alike come from different tables or passages of the source.

One data set concerns RPMI8226 cells. Nature of the data set: Cytotoxicity experiment (Cell-Titer, 72 h) in RPMI8226 cells. Format: cell-based. The conditions noted are these: for IC50: Homo sapiens, RPMI-8226, 72 h, Cell-Titer. Here is the method: 4. Cytotoxicity Experiment
• (1) RPMI8226 cells in the logarithmic growth phase were added to a 384-well plate at 1000 cells/well in a volume of 18 μL/well and incubated at 37° C., 5% CO2 for 24 h. • (2) The test compound at a stock concentration of 10 mM was diluted 10-fold with DMSO and then 100-fold with a serum-free 1640 medium to give a dilution at a working concentration of 10 μM containing 1% DMSO. 10 concentrations were then obtained by 2-fold serial dilution using a serum-free 1640 medium containing 1% DMSO, with the tenth concentration point being a solvent control group (no drug). The diluted compound was added into the plated cell plate at 2 μL/well to give final compound concentrations from 1000 nM (2-fold gradient dilution, 10 concentration gradients), and 4 replicates were set for each concentration. 1% DMSO was used as a solvent control and KPT-8602 as a positive control. • (3) The cells were incubated at 37° C. for 72 h, and 10 μL of Cell-Titer assay reagent was added to each well, followed by incubation in a cell incubator for 10 min. • (4) The mixture was well mixed by shaking and then assayed by the Cell-Titer program running on a microplate reader. The inhibition % and IC50 values (μM) were calculated using GraphPad Prism 5.

Data set [1] is described as follows: Pharmacokinetic results of the drugs in SD rats. Format: in vivo. The conditions noted are these: for clearance: read-out: Cl s, spp. From the text:
III. Pharmacokinetic Results of the Drugs in SD Rats

The nature of data set [2]: In vivo toxicity assay in BALB/C mice (21 days, intragastric, once daily). Here is the method:
IV. In Vivo Toxicity Assay of Candidate Compounds in BALB/C
25 BALB/C mice were randomly divided into the following 5 groups: solvent control group (Control), positive control KPT-8602 (30 mg/kg, once daily) group, KPT-8602 (60 mg/kg, once daily) group, compound I (30 mg/kg, once daily) group, and compound I (60 mg/kg, once daily) group, with 5 mice in each group. Each group was intragastrically given a test compound at a corresponding concentration at a dose of 3 mL/kg. KPT-8602 and compound I were administered daily for 21 consecutive days.

Setting [3] is: rat, in vivo, po (10 mg/kg), read-out: AUC0-inf.
The mark [4] stands for this setting: 30 mg/kg once daily, intragastric, 21 days.

As usually defined, the IC50 is the concentration that inhibits the measured activity by half. Read a low IC50 as inhibition by little substance. Usually Cmax stands for the maximum level reached in the sampled fluid or tissue. For orientation: MRT means a mean duration of stay, worked out from the concentration-time curve. In general, half-life refers to the time in which the quantity being followed falls by half. The term Tmax denotes the time at which the peak concentration occurs. Usually bioavailability stands for dose-corrected exposure relative to a reference, in per cent. Regarding `CONC(=O)/C(=C/n1cnc(-c2cc(C(F)(F)F)cc(C(F)(F)F)c2)n1)c1cncnc1` [Compound I, (E)-3-(3-(3,5-Bis(trifluorometh-yl)phenyl)-1H-1,2,4-triazol-1-yl)-N-methoxy-2-(pyri-midin-5-yl)acrylamide], in the data set with RPMI8226 cells, the “cellular activity compared with KPT-8602” value is “substantially equivalent to KPT-8602” and the IC50 came out at 370 nM. In data set [1] (iv (2 mg/kg), in ng·h/mL), this compound registered an AUC0-inf of 1493 and an AUC0-t of 1301. Also, in data set [1] (iv and po), the “intravenous and oral AUCs compared with KPT-8602” value was “much higher than those of KPT-8602”; the “oral and intravenous half-lives compared with KPT-8602” value is listed as “longer than those of KPT-8602”. Also, the “oral half-life compared with KPT-8602” value in data set [1] (po) is given as “about 2 times”. In addition, in data set [1] (po (10 mg/kg)), the Cl s, spp is 43.8 mL/min/kg and the “Cmax” value worked out at 899 ng/mL. In data set [1] (rat, in vivo, iv (2 mg/kg)), the MRT was 2.49 h, the half-life is 4.23 h and the clearance is 24.2 mL/min/kg. In data set [1] (rat, in vivo, po (10 mg/kg)), the MRT was 7.65 h, the Tmax was 0.25 h, the bioavailability is 55.9% and the half-life was 5.59 h. The AUC0-inf in data set [1] (setting [3]) worked out at 3890 ng·h/mL. In addition, the AUC0-t in data set [1] (rat, in vivo, po (10 mg/kg), read-out: AUC0-t) was found to be 3210 ng·h/mL. Further, in data set [2] (setting [4]), the body weight change entry is reported as “body weights comparable to the blank”. Moreover, in data set [2] (60 mg/kg once daily, intragastric, 21 days), the body weight change result was “body weights comparable to the blank”. Besides, the “safety (overall conclusion)” value in data set [2] (30 and 60 mg/kg once daily, 21 days) is “good safety”.

`O=C(NO)/C(=C/n1cnc(-c2cc(C(F)(F)F)cc(C(F)(F)F)c2)n1)c1cncnc1` [II, (E)-3-(3-(3,5-Bis(trifluorometh-yl)phenyl)-1H-1,2,4-triazol-1-yl)-N-hydroxy-2-(pyri-midin-5-yl)acrylamide] displayed an IC50 with RPMI8226 cells of 6900 nM.

In the data set with RPMI8226 cells, `CO/C(=N\C(C)(C)C)NC(=O)/C(=C/n1cnc(-c2cc(C(F)(F)F)cc(C(F)(F)F)c2)n1)c1cncnc1` [III, Methyl(Z)-N-((E)-3-(3-(3,5-bis(trifluoromethyl)phenyl)-1H-1,2,4-triazol-1-yl)-2-(py-rimidin-5-yl)acryloyl)-N′-(tert-butyl)carbamate] yielded a concentration for half-maximal inhibition (IC50) of 7100 nM. The IC50 values of the last two compounds are within 1.5-fold of each other.

On to `CCONC(=O)/C(=C/n1cnc(-c2cc(C(F)(F)F)cc(C(F)(F)F)c2)n1)c1cncnc1` [IV, (E)-3-(3-(3,5-Bis(trifluorometh-yl)phenyl)-1H-1,2,4-triazol-1-yl)-N-ethoxy-2-(pyrimi-din-5-yl)acrylamide], for which, in the data set with RPMI8226 cells, the “cellular activity compared with KPT-8602” value is “substantially equivalent to KPT-8602” and inhibition was half-maximal at 540 nM (IC50).

`NC(=O)/C(=C/n1cnc(-c2cc(C(F)(F)F)cc(C(F)(F)F)c2)n1)c1cncnc1` [KPT-8602, reference compound] came in with an IC50 in the data set on RPMI8226 cells of 340 nM. Besides, in data set [1] (iv (2 mg/kg), in ng·h/mL), the AUC0-inf was 998 and the AUC0-t stood at 963. This compound gave a Cl s, spp in data set [1] (po (10 mg/kg)) of 67.4 mL/min/kg. In data set [1] (po (10 mg/kg), in ng·h/mL), this compound returned an AUC0-t of 2541. In data set [1] (rat, in vivo, iv (2 mg/kg)), the MRT is 2.48 h, the half-life is 3.04 h and the clearance was 34.4 mL/min/kg. Further, in data set [1] (rat, in vivo, po (10 mg/kg)), the MRT is 3.85 h, the Tmax amounted to 1 h, the bioavailability was found to be 52% and the half-life was 2.69 h. The AUC0-inf in data set [1] (setting [3]) was 2600 ng·h/mL. The Cmax in data set [1] (rat, in vivo, po (10 mg/kg), read-out: Cmax) is 720 ng/mL. The body weight change result in data set [2] (setting [4]) is “significant decrease in body weight”. Further, the “mortality by day 10” value in data set [2] (60 mg/kg once daily, intragastric) is “all died”. For the same compound, the “mice died on day 7” value in data set [2] (60 mg/kg once daily, intragastric, 5 mice per group) is recorded as “two”.
